These results are taken from patent publication US20240122179A1, “AUXINIC HERBICIDES AND METHODS OF USE THEREOF” (CORTEVA AGRISCIENCE LLC, priority 2021, published 2024).

What all share (experiment): Postemergence herbicide evaluation, percent reduction in plant size vs untreated control, 21 days after treatment
The subject of experiment [1] is Amaranthus palmeri (AMAPA). It is filed as in vivo, Amaranthus palmeri (Palmer amaranth). Particulars: post-emergence, 504 h, postemergence, read-out: Control/Injury; for pest or weed control at 140 g/ha: rate 140 g ae/ha; for pest or weed control at 280 g/ha: rate 280 g ae/ha. The method, then:
(§1) Plants were grown in a soil media composed of 90% by volume Promix BX (Premier Tech Horticulture, Quakertown, PA) and 10% Profile Greens Grade (Profile Products LLC, Buffalo Grove, IL). Promix BX contains approximately 83% Sphagnum Peat Moss, 13% Perlite, 5% vermiculite, and proprietary amounts of limestone, starter fertilizer, and wetting agent. Profile Greens Grade is a sand-sized granule formed from calcining illite and montmorillonite clay. Several seeds of each species were planted in 10 cm square pots and top watered twice daily. Plant material was propagated in a warm greenhouse with temperature ranging from 25 to 28° C. and 50 to 60% relative humidity at the Corteva Global Headquarters (Indianapolis, Indiana, USA). Natural light was supplemented with 1000-watt metal halide overhead lamps with an average illumination of 500 μE m^−2 s^−1 photosynthetic active radiation for 16 consecutive hours each day. Plants were top-watered prior to herbicide application and sub-watered after herbicide application.
(§2) Appropriate amounts of test materials were weighed out into glass vials in their technical form to deliver either 140 or 280 g acid equivalent (ae)/ha. The samples were dissolved in 3 ml of Solvent 1. Solvent 1 is 97% acetone and 3% dimethyl sulfoxide and serves as a general-purpose solvent (GPS) for dissolving technical materials. […] The samples were then diluted to their final concentration using 17 ml of solvent 2 for a total of 20 ml of spray solution. Solvent 2 contains 41.58% GPS, 45.53% water, 11.88% isopropyl alcohol, 0.99% crop oil concentrate and 0.02% Trition X-155 surfactant. All percentages are listed on a volume basis. Dicamba diglycolamine was applied as a formulated herbicide, Clarity™ and diluted with solvent 2 to compare all materials in the same spray solution.
(§3) Herbicide applications were made to 3 to 4 replicates of each plant species at the 2 to 8 leaf stage, depending on the species. Treatments were applied with a research track-sprayer (Generation III Research Sprayer manufactured by DeVries Manufacturing in Hollandale, MN, USA) calibrated to deliver a spray volume of 187 L/ha. The track-sprayer was fitted with an 8003E nozzle from Spray Systems Company (North Avenue and Schmale Road, P.O. Box 7900, Wheaton, IL 60187), and used a spray pressure of 276 kPa pressure and a speed of 3.1 km/h. The nozzle height was 46 cm above the plant canopy. The experimental design used for the trials was a randomized complete block with 3 or 4 replications per treatment. After application, plants were placed on carts according to the randomization and returned to the greenhouse. Plants were sub-watered after treatment with Indianapolis city water or fertilized three times a week with a commercial fertilizer solution (Jack's Professional 15-5-15 4 Ca 2 Mg fertilizer (manufactured by JR PETERS INC., 6656 Grant Way, Allentown, PA 18106; www.jrpeters.com). Percent visual control assessments were made on a scale of 0 to 100% (where 0 was no control and 100 was complete plant death) at 7, 14, and 21 days after treatment.
In conformity with the methods outlined in Example 49, the effect of representative experimental compounds on the growth of Amaranthus palmeri (AMAPA), common name, Palmer amaranth, was determined at 2 different levels (respectively, 140 and 280 g acid equivalent (ae)/ha) of the experimental actives tested. Plants were treated with one of the compounds, a control plant was not treated. Twenty-one days after treatment, the plants were measured. The data is present as a percent reduction in plant size relative to the untreated control.

Experiment [2] relates to Ambrosia artemisiifolia (AMBEL). The format is in vivo, Ambrosia artemisiifolia (common ragweed). As to conditions: post-emergence, 504 h, AMBEL, postemergence, read-out: Control/Injury; for pest or weed control at 140 g/ha: rate 140 g ae/ha; for pest or weed control at 280 g/ha: rate 280 g ae/ha. How it is done: as §1, §2, §3
In conformity with the methods outlined in Example 49, the effect of representative experimental compounds on the growth of Ambrosia artemisiifolia (AMBEL), (common ragweed), was determined at 2 different levels (respectively, 140 and 280 g acid equivalent (ae)/ha) of the experimental actives tested. Plants were treated with one of the compounds, a control plant was not treated. Twenty-one days after treatment, the plants were measured. The data is present as a percent reduction in plant size relative to the untreated control.

The next experiment deals with Kochia scoparia (KCHSC). The format is in vivo. Particulars: Bassia scoparia, post-emergence, 504 h, KCHSC, postemergence, read-out: Control/Injury; for pest or weed control at 140 g/ha: rate 140 g ae/ha; for pest or weed control at 280 g/ha: rate 280 g ae/ha. How it is done:
as §1, §2, §3
In conformity with the methods outlined in Example 49, the effect of representative experimental compounds on the growth of Kochia scoparia (KCHSC) was determined at 2 different levels (respectively, 140 and 280 g acid equivalent (ae)/ha) of the experimental actives tested. Plants were treated with one of the compounds, a control plant was not treated. Twenty-one days after treatment, the plants were measured. The data is present as a percent reduction in plant size relative to the untreated control.

Experiment [3] concerns Conyza canadensis (L.) (ERICA). The format is in vivo, Conyza canadensis (L.) (Horseweed). As to conditions: Erigeron canadensis, post-emergence, 504 h, ERICA, postemergence, read-out: Control/Injury; for pest or weed control at 140 g/ha: rate 140 g ae/ha; for pest or weed control at 280 g/ha: rate 280 g ae/ha. The method, then: as §1, §2, §3
In conformity with the methods outlined in Example 49, the effect of representative experimental compounds on the growth of Conyza canadensis (L.), (ERICA), common name, Horseweed, was determined at 2 different levels (respectively, 140 and 280 g acid equivalent (ae)/ha) of the experimental actives tested. Plants were treated with one of the compounds, a control plant was not treated. Twenty-one days after treatment, the plants were measured. The data is present as a percent reduction in plant size relative to the untreated control.

The subject of the next experiment is Amaranthus rudis (AMATA). It is filed as in vivo, Amaranthus rudis (tall water hemp). As to conditions: Amaranthus tuberculatus, post-emergence, 504 h, AMATA, postemergence, read-out: Control/Injury; for pest or weed control at 140 g/ha: rate 140 g ae/ha; for pest or weed control at 280 g/ha: rate 280 g ae/ha. How it is done:
as §1, §2, §3
In conformity with the methods outlined in Example 49, the effect of representative experimental compounds on the growth of Amaranthus rudis (AMATA), common name tall water hemp, was determined at 2 different levels (respectively, 140 and 280 g acid equivalent (ae)/ha) of the experimental actives tested. Plants were treated with one of the compounds, a control plant was not treated. Twenty-one days after treatment, the plants were measured. The data is present as a percent reduction in plant size relative to the untreated control.

Where [4] appears, read: percent reduction vs untreated, 21 days after treatment.
Where [5] appears, read: R-AMAPA, percent reduction vs untreated control, 21 days after treatment.
Setting [6] is: percent reduction vs untreated control, 21 days after treatment.

Read-outs that look alike come from different tables or passages of the source.

With `COc1c(Cl)ccc(Cl)c1C(=O)n1ccnc1` [Compound A-126], the pest or weed control at 140 g/ha in experiment [1] (AMAPA) stood at 33%; in experiment [2] it was 33%; in the experiment with Kochia scoparia (KCHSC) (setting [4]), 28%; in experiment [3] it was 15%; in the experiment on Amaranthus rudis (AMATA), 45%. In addition, the pest or weed control at 280 g/ha in experiment [1] (AMAPA) was found to be 35%; in experiment [2] it was 50%; in the experiment on Kochia scoparia (KCHSC) (setting [4]), 50%; in experiment [3] it was 33%; in the experiment on Amaranthus rudis (AMATA), 55%.
Regarding `COc1c(Cl)ccc(Cl)c1C(=O)O/N=C(\N)CC/C(N)=N/OC(=O)c1c(Cl)ccc(Cl)c1OC` [Compound A-140], the pest or weed control at 140 g/ha in experiment [1] (setting [5]) was 54%; in experiment [2] it was 94%; with Kochia scoparia (KCHSC) (setting [4]) it was 95%; in experiment [3] (setting [4]), 83%; with Amaranthus rudis (AMATA), 70%. The pest or weed control at 280 g/ha in experiment [1] (setting [5]) was 59%; in experiment [2], 94%; in the experiment on Kochia scoparia (KCHSC) (setting [4]), 98%; in experiment [3] (setting [4]) it was 83%; with Amaranthus rudis (AMATA), 68%.
Take `COc1c(Cl)ccc(Cl)c1C(=O)NOc1ccccc1` [Compound A-124]: the pest or weed control at 140 g/ha in experiment [1] (AMAPA) worked out at 4%; in experiment [2], 20%; in the experiment on Kochia scoparia (KCHSC) (setting [4]), 0%; in experiment [3], 0%; in the experiment with Amaranthus rudis (AMATA), 3%. Besides, the pest or weed control at 280 g/ha in experiment [1] (AMAPA) amounted to 3%; in experiment [2], 28%; in the experiment on Kochia scoparia (KCHSC) (setting [4]), 0%; in experiment [3] it was 3%; in the experiment with Amaranthus rudis (AMATA), 10%.
On to `COc1c(Cl)ccc(Cl)c1C(=O)O/N=C/C(C)=O` [Compound A-69], for which the pest or weed control at 140 g/ha came to 70% in experiment [1] (setting [5]); 80% in experiment [2]; 91% in the experiment with Kochia scoparia (KCHSC); 88% in experiment [3] (setting [6]); 67% in the experiment on Amaranthus rudis (AMATA). Moreover, the pest or weed control at 280 g/ha worked out at 80% in experiment [1] (setting [5]); 96% in experiment [2]; 96% in the experiment on Kochia scoparia (KCHSC); 91% in experiment [3] (setting [6]); 80% in the experiment on Amaranthus rudis (AMATA).
In the case of `COc1c(Cl)ccc(Cl)c1C(=O)O/N=C(\N)CCCC/C(N)=N/OC(=O)c1c(Cl)ccc(Cl)c1OC` [Compound A-145], the pest or weed control at 140 g/ha in experiment [1] (setting [5]) was 55%; in experiment [2], 88%; in the experiment with Kochia scoparia (KCHSC) (setting [4]), 94%; in experiment [3] (setting [4]) it was 83%; in the experiment on Amaranthus rudis (AMATA) it was 60%. In addition, the pest or weed control at 280 g/ha came out at 65% in experiment [1] (setting [5]); 96% in experiment [2]; 91% in the experiment with Kochia scoparia (KCHSC) (setting [4]); 78% in experiment [3] (setting [4]); 64% in the experiment on Amaranthus rudis (AMATA).
Turning to `COc1c(Cl)ccc(Cl)c1C(=O)Oc1noc2ccccc12` [Compound A-122], the pest or weed control at 140 g/ha in experiment [1] (AMAPA) was found to be 28%; in experiment [2] it was 73%; with Kochia scoparia (KCHSC) (setting [4]) it was 80%; in experiment [3] it was 95%; with Amaranthus rudis (AMATA), 38%. Besides, the pest or weed control at 280 g/ha is 45% in experiment [1] (AMAPA); 97% in experiment [2]; 93% with Kochia scoparia (KCHSC) (setting [4]); 100% in experiment [3]; 50% in the experiment with Amaranthus rudis (AMATA).
With `COc1c(Cl)ccc(Cl)c1C(=O)NOC1CCCCO1` (centres unmarked) [Compound A-100], the pest or weed control at 140 g/ha in experiment [1] (AMAPA) was determined as 0%; in experiment [2], 5%; in the experiment with Kochia scoparia (KCHSC) (setting [4]) it was 0%; in experiment [3] it was 8%; in the experiment on Amaranthus rudis (AMATA), 0%. Further, the pest or weed control at 280 g/ha in experiment [1] (AMAPA) came out at 15%; in experiment [2], 20%; in the experiment on Kochia scoparia (KCHSC) (setting [4]), 0%; in experiment [3], 13%; in the experiment on Amaranthus rudis (AMATA) it was 19%.
Turning to `COc1c(Cl)ccc(Cl)c1C(=O)Oc1nccs1` [Compound A-103], the pest or weed control at 140 g/ha in experiment [1] (AMAPA) was found to be 35%; in experiment [2], 28%; in the experiment with Kochia scoparia (KCHSC) (setting [4]) it was 0%; in experiment [3], 0%; with Amaranthus rudis (AMATA) it was 8%. Also, the pest or weed control at 280 g/ha is 30% in experiment [1] (AMAPA); 12% in experiment [2]; 3% in the experiment with Kochia scoparia (KCHSC) (setting [4]); 3% in experiment [3]; 18% in the experiment with Amaranthus rudis (AMATA).
